Laboratory results taken from patent EP2474552A1, “New saccharide mimics and their use as inhibitors of angiogenesis and metastasis formation” (Deutsches Krebsforschungszentrum, priority 2011, dated 2012).
Like-named read-outs stand apart in the source and are kept apart here.

What was measured:
WM-266-4 cells [1] = test: Adhesion assay with WM-266-4 cells on fibronectin; format: cell-based, human
Experimental: Microtiter plates with 96 wells were coated with 0.5 µg of fibronectin in 50 µl over night at 4° C and blocked with 200 µl adhesion buffer (1% BSA in PBS without Ca^2+/Mg^2+). WM-266-4 cells were pre-incubated with the test compounds at the respective concentrations in serum free medium for 60 min in a shaker (600 rpm) at 37° C. Afterwards, 4 x 10^4 cells in 100 µl were withdrawn and added into each well and incubated for 1 h at 37° C. Medium and non-adherent cells were aspirated and adherent cells were fixed in 4% formalin in PBS. The plates were washed with 0.01 M borate buffer (Stock-solution: 20 mM boric acid, 100 mM sodium tetraborate; pH 8.5; working solution: 0.01 M dilution in H2O) and 50 µl of 0.01 % methylene blue in borate buffer were added, wherein the cells were stained for 10 min at room temperature. The plates were extensively washed with water and air-dried. The air-dried plates were incubated for 45 min with 200 µl/well extraction buffer (a mixture of 0.1 N HCl and absolute EtOH (1:1, vol/vol)), wherein the adherent cells were quantified in an ELISA-reader, which read the extinction at 651 nm.
The human melanoma cells adhered to the fibronectin coated cell culture dishes. This adhesion is a prerequisite for growth of circulating cells such as occurs when these metastasize to sites distant from the tumor. The compounds described herein can inhibit such adhesion to the extracellular matrix protein fibronection or laminin to various degrees.

WM-115 cells = test: Wound healing assay (cell migration); format: cell-based, human; parameters: key to inhibit the cell migration of WM-115 cells: (-) means that the cell migration was not inhibited and that the wound healed; (+) means a slight inhibition, which slows the trend to heal; (++) means that the cell migration was inhibited, since only some cells were visible in the wound; (+++) means the absolute inhibition of cell migration; conditions: for concentration at which the migration of human melanoma cells is inhibited: summary of Table 1
Experimental: The compounds of the present invention were analyzed by means of a migration-assay, called "wound healing assay", that determines the inhibition-rate of the compounds on human melanoma cell line migration. Another migration assay, the so-called the Oris™ cell migration assay, is also applicable to examine the cell migration inhibitory effects of the compounds of the present invention. The used melanoma cells lines were WM-115 and WM-266-4, which are accepted in-vitro model cell systems. The human cell line WM-115 is derived from the primary tumor of a vertical growth phase (VGP) melanoma, whereas the cell line WM-266-4 is derived from the corresponding cutaneous metastasis. The "wound healing assay" is applicable to examine the cell migration inhibitory effects of the compounds of the present invention, which is described in further detail in the Examples. Furthermore, the "wound healing assay" is based on the fact that when wounded or scratched, cell monolayers respond to the disruption of cell-cell contacts and an increased concentration of growth factors at the wound margin by healing the wound through a combination of proliferation and migration, according to Yarrow, J.C., et al., BMC Biotechnol., 2004: 4, 21-29. In order to investigate the cell migration an intact cell monolayer is wounded with a pipette tip.
The wound healing assay has been carried out according to description as disclosed in Yarrow, J.C., et al., BMC Biotechnol., 2004: 4, 21-29. For carrying out the wound healing assay, 2 x 10^5 cells were grown in one well of a 12-well-plate under cell culture specific conditions for 24 h. After 24 h, a wound has been scratched in the confluently grown cell monolayer with a 100 µl pipette-tip. Detached cells were removed by washing with serum-free medium and new media with the respective compounds to be tested were supplemented with varying amounts. The cells were incubated under cell culture specific conditions and always the same section was photographed after 2, 4, 8 and 24 under the phase contrast microscope. The untreated cells healed the wound through a combination of proliferation and migration after 24 h.
The following table (Table 1) is a summary of the results obtained by carrying out the above described wound healing assay with varying amounts of compounds of the present invention to inhibit the cell migration of WM-115 cells, wherein (-) means that the cell migration was not inhibited and that the wound healed, (+) means a slight inhibition, which slows the trend to heal, (++) means that the cell migration was inhibited, since only some cells were visible in the wound, and (+++) means the absolute inhibition of cell migration. The abbreviation "n.d." means "not determined".

murine B16F10 cells = conditions: cited from earlier work
human WM-115 cells = conditions: cited from earlier work
[2] = system: matrix-metalloproteinase-2 (MMP-2); conditions: cited from earlier work
WM-115 [3] = conditions: WM-115, at 5 mM; cited from earlier work
WM-266-4 cells [4] = conditions: WM-266-4, at 5 mM; cited from earlier work
WM-115 [5] = conditions: WM-115, 5 mM; cited from earlier work
WM-266-4 = conditions: WM-266-4, 2.5 mM; cited from earlier work
human melanoma cells [6] = test: Vitality test with Trypanblue; conditions: cells of the migration assay
human melanoma cells [7] = system: human melanoma cells
HBMEC-60 cells = test: Adhesion assay with HBMEC cells (TNF-α stimulated) on laminin; format: cell-based, human
Experimental: Microtiter plates with 96 wells coated with the extracellular matrix component type I collagen, fibronenctin or laminin were used. HBMEC-60 cells which had been pre-incubated with the tumor necrosis factor (TNF-α, 40 ng/ml) for 24 hrs were incubated with the test compounds at the respective concentrations in serum free medium for endothelial cells (Promozell, Heidelberg, Germany) without growth factors for 30 min in 1.5 mL microfuge tubes (Eppendorf, Hamburg, Germany). Afterwards, 4 x 10^4 HBMEC-60 cells in 100 µl were withdrawn and added into each well. The plates were incubated at 37° C for 30 min and subsequently washed twice with PBS (with CaCl2 und MgSO4). Then, the adherent cells were fixed, washed and stained with methylene blue, the dye released and the extinction read as described above for the experiments with the melanoma cells.
Adhesion of endothelial cells to extracellular matrix proteins like laminin is a prerequisite for angiogenesis.

vitality test with Trypanblue (human melanoma cells [7]) | SMILES | inhibition of the adhesion of WM-266-4 cells to fibronectin (WM-266-4 cells [1]; concentration of 5 mM) | inhibit the cell migration of WM-115 cells (WM-115 cells; Concentration 0.1 mM) | inhibit the cell migration of WM-115 cells (WM-115 cells; Concentration 1 mM) | inhibit the cell migration of WM-115 cells (WM-115 cells; Concentration 2.5 mM) | inhibit the cell migration of WM-115 cells (WM-115 cells; Concentration 5mM) | concentration at which the migration of human melanoma cells is inhibited (WM-115 cells) | also measured
 | O=S(=O)(O)OCc1cocc1CO[C@@H]1O[C@H](CO)[C@H](O)[C@H](O)[C@H]1O [GSF, 3-β-D-galactopyranosyl-oxymethyl-4-sulfato-methyl-furan] | 26% | - | - | + | +++ | greater than or equal to 2.5 mM | inhibition of the adhesion of WM-266-4 cells to fibronectin (WM-266-4 cells [1]; concentration of 0.1 mM): 8%; inhibition of adhesion to fibrinogen (murine B16F10 cells; at 20 mM or rather 10 mM): completely inhibits; inhibition of adhesion to fibronectin (murine B16F10 cells; at 40 mM): completely inhibits; inhibition of adhesion to fibrinogen (human WM-115 cells; at 20 mM or rather 10 mM): completely inhibits; inhibition of adhesion to fibronectin (human WM-115 cells; at 40 mM): completely inhibits; activation of the matrix-metalloproteinase-2 (MMP-2) [2]: decreased; inhibition of migration (WM-115 [3]): inhibited; inhibition of migration (WM-266-4 cells [4]): inhibited; inhibition of cell migration into a wound (WM-115 [5]): no detectable migration; inhibition of cell migration into a wound (WM-266-4): no detectable migration
 | OC[C@H]1O[C@@H](OCc2cocc2CF)[C@H](O)[C@@H](O)[C@H]1O [GFF, 3-(β-D-galactopyranosyl-oxymethyl)-4-(fluoro-methyl)-furan] |  |  | + | +++ | +++ |  | inhibition at 100 µM (WM-266-4 cells [1]; Homo sapiens, WM 266-4, concentration of 0.1 mM): 34%; inhibition at 5000 µM (WM-266-4 cells [1]; Homo sapiens, WM 266-4, concentration of 5 mM): 62%; vitality test with Trypanblue (human melanoma cells [6]): cells were intact
cells were intact | O=S(=O)(O)OCc1cocc1CO[C@@H]1O[C@H](CO)[C@@H](O)[C@H](O)[C@H]1O [GluSF, 3-(β-D-glucopyranosyl-oxymethyl)-4-(sulfatomethyl)-furan] | 79% | - | + | + | +++ | 1 mM | 
cells were intact | O=S(=O)(O)OCc1cocc1CO[C@@H]1O[C@H](COS(=O)(=O)O)[C@H](O)[C@H](O)[C@H]1O [GSSF, 3-(6-sulfato-β-D-galactopyranosyl-oxymethyl)-4-(sulfatomethyl)-furan] |  | ++ | ++ | +++ | +++ | 0.1 mM | inhibition of HBMEC-60 cell adhesion to laminin (HBMEC-60 cells; 10 mM, compared with 10 mM GSF): better inhibitor; inhibition of endothelial cell adhesion to laminin (HBMEC-60 cells; concentrations of 0.1, 0.5, 1 and 5 mM): significantly inhibited
